Results taken from US20150119429A1, “Iron Chelators as HIV-1 Inhibitors” (Howard University, priority 2012, published 2015).

Columns and labels:
[1] = system: VSVG-pseudotyped pNL4-3.Luc.R-E-(HIV-1 Luc) virus; assay: One round of HIV-1-Luc replication in CEM cells (luciferase activity); type: cell-based; conditions: for IC50: Human immunodeficiency virus 1, CCRF-CEM, CEM cells infected about 18 h, treated about 24 h at about 37° C., FIG. 2, read-out: IC50 for inhibition of HIV-1 replication; for inhibition of HIV-1 replication compared with Bp4eT: CEM cells infected 18 h, treated 24 h at 37° C., FIG. 8
[2] = system: CEM cells; assay: Toxicity of iron chelators in CEM cells (calcein-AM fluorescence); type: cell-based, human; conditions: about 24 h at about 37° C., micromolar concentrations, FIG. 3
[3] = system: IkB gene; assay: Induction of IkB gene expression in 293T cells (real-time PCR); type: cell-based, human; conditions: about 24 hours of treatment, DDCt vs DMSO, FIG. 5
[4] = system: cellular iron in THP-1 cells; assay: Cellular iron chelation in THP-1 cells (calcein fluorescence); type: cell-based, human; conditions: THP-1 cells treated with FeS, loaded with calcein-AM, versus control SIH compound, FIG. 4
Procedure: To assess iron chelating efficiency, human acute monocytic leukemia cell line (THP-1) cells were untreated (control) or treated with FeS for about 1 hr at about 37° C., and then loaded with iron sensor, calcein-AM for about 10 min at about 37° C. After washing with phosphate buffer solution (PBS), cells were treated with various iron chelators. In Figure. 4, calcein fluorescence was measured in a real-time PCR machine as a function of time. Fractional fluorescence (F-Fi)/Fi is proportional to the amount of chelatable iron.

[5] = system: heme oxygenase-1 gene; assay: Induction of heme oxygenase-1 expression in THP-1 cells (real-time PCR); type: cell-based, human; conditions: about 24 hours of treatment, DDCt, hemin at 100 μM, FIG. 6

Compound | IC50 [1] | toxicity [2] | expression of IkB [3] | iron chelating efficiency (fractional calcein fluorescence) [4] | expression of heme oxygenase-1 (HO-1) [5] | inhibition of HIV-1 replication compared with Bp4eT [1]
CCNC(=S)N/N=C(\c1ccccc1)c1ccccn1 [Bp4-eT, reference compound] | 7.5 nM |  |  |  |  | 
O=C(Cc1ccccc1)c1ccccn1 [PPY, 2-phenyl-1-pyridin-2yl-ethanone, reference compound] |  | Neither PPY, nor representative PpYeT and PpYaT compounds show significant toxicity |  |  |  | 
C=CCNC(=S)N/N=C(\Cc1ccccc1)c1ccccn1 [PpYaT] | 14 nM | Neither PPY, nor representative PpYeT and PpYaT compounds show significant toxicity | induce expression of IkB | better than the control SIH compound | induce expression of heme oxygenase-1 (HO-1) | inhibit HIV-1 replication comparable to the effect of previously studied Bp4eT chelator
CCNC(=S)N/N=C(\Cc1ccccc1)c1ccccn1 [PpYeT] | 14 nM | Neither PPY, nor representative PpYeT and PpYaT compounds show significant toxicity | induce expression of IkB | better than the control SIH compound | induce expression of heme oxygenase-1 (HO-1) | inhibit HIV-1 replication comparable to the effect of previously studied Bp4eT chelator
hemin [reference compound] |  |  |  |  | induced expression of HO-1 | 
